Source: patent US20130035281A1, “PHARMACEUTICAL COMPOSITION, METHODS FOR TREATING AND USES THEREOF” (BOEHRINGER INGELHEIM INTERNATIONAL GMBH, priority 2011, published 2013)

Key:
[1] = tested on: Zucker diabetic fatty (ZDF) rats; experiment: Oral glucose tolerance test in ZDF rats; type: in vivo; settings: overnight fasted 12-weeks old male ZDF rats; single dose; Cpd. A 3 mg/kg oral, exendin-4 0.01 mg/kg subcutaneous; oral glucose 2 g/kg; blood glucose up to 120 min
Experimental: An oral glucose tolerance test was performed in overnight fasted 12-weeks old male Zucker diabetic fatty (ZDF) rats (ZDF/CRL-Lepr^fa). A pre-dose blood sample was obtained by tail bleed. Blood glucose was measured with a glucometer, and the animals were randomized for blood glucose (n=5/group). Subsequently, the groups received a single oral administration of either vehicle alone (0.5% aqueous hydroxyethylcellulose) or this vehicle containing the glucopyranosyl-substituted benzene derivative. […] The animals were orally dosed with glucose (2 g/kg) 30 min after the subcutaneous injection. Blood glucose was measured in tail blood 15 min, 30 min, 60 min, 90 min, and 120 min thereafter. Glucose excursion was quantified by calculating the reactive glucose AUC. The data are presented as mean±S.E.M. The two-sided unpaired Student's t-test was used for statistical comparison of the groups. A p value<0.05 was considered to show a statistically significant difference.

[2] = metformin on its own, in the diabetic; cited from earlier work

Row | SMILES | reduction of glucose excursion (reactive glucose AUC) [1] [%] | average improvement in the HbA1c value [2]
1 | OC[C@H]1O[C@@H](c2ccc(Cl)c(Cc3ccc(O[C@H]4CCOC4)cc3)c2)[C@H](O)[C@@H](O)[C@@H]1O [Cpd. A] | 57 | 
2 | CN(C)C(=N)N=C(N)N [metformin] |  | 1.0-1.5%
